Measured values published in PubChem BioAssay AID1963837 (Molecular Pharmacology Branch, DTP, NCI, 2024).

Tested on: 843126-344-R-J1-PDC complex spheroid viability
Assay: Anticancer human tumor 843126-344-R-J1-PDC patient-derived melanoma cell line growth inhibition [POLQ]
Conditions: for IC50: curve of first compound; for viability, T/C: stronger effect = lower value
In short: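 Growth inhibition in 3D: complex spheroids (tumor PDC, HUVEC, MSC) treated with POLQ inhibitor combinations; where Cmax unknown, highest tested concentration 10 microM, except SN-38 at 1 microM.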

[1] = second compound 0.0316 µM, first compound 0.0316 µM
[2] = second compound 0.0316 µM, first compound 0.1 µM
[3] = second compound 0.0316 µM, first compound 0.316 µM
[4] = second compound 0.0316 µM, first compound 1 µM
[5] = second compound 0.0316 µM, first compound 3.16 µM
[6] = second compound 0.0316 µM, first compound 10 µM
[7] = second compound 0.1 µM, first compound 0.0316 µM
[8] = second compound 0.1 µM, first compound 0.1 µM
[9] = second compound 0.1 µM, first compound 0.316 µM
[10] = second compound 0.1 µM, first compound 1 µM
[11] = second compound 0.1 µM, first compound 3.16 µM
[12] = second compound 0.1 µM, first compound 10 µM
[13] = second compound 0.316 µM, first compound 0.0316 µM
[14] = second compound 0.316 µM, first compound 0.1 µM
[15] = second compound 0.316 µM, first compound 0.316 µM
[16] = second compound 0.316 µM, first compound 1 µM
[17] = second compound 0.316 µM, first compound 3.16 µM
[18] = second compound 0.316 µM, first compound 10 µM
[19] = second compound 1 µM, first compound 0.0316 µM
[20] = second compound 1 µM, first compound 0.1 µM
[21] = second compound 1 µM, first compound 0.316 µM
[22] = second compound 1 µM, first compound 1 µM
[23] = second compound 1 µM, first compound 3.16 µM
[24] = second compound 1 µM, first compound 10 µM
[25] = second compound 3.16 µM, first compound 0.0316 µM
[26] = second compound 3.16 µM, first compound 0.1 µM
[27] = second compound 3.16 µM, first compound 0.316 µM
[28] = second compound 3.16 µM, first compound 1 µM
[29] = second compound 3.16 µM, first compound 3.16 µM
[30] = second compound 3.16 µM, first compound 10 µM
[31] = second compound 10 µM, first compound 0.0316 µM
[32] = second compound 10 µM, first compound 0.1 µM
[33] = second compound 10 µM, first compound 0.316 µM
[34] = second compound 10 µM, first compound 1 µM
[35] = second compound 10 µM, first compound 3.16 µM
[36] = second compound 10 µM, first compound 10 µM
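For viability, T/C in this document: spheroids exposed to drugs for seven days before readout.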

## C#Cc1c(F)ccc2cc(O)cc(-c3ncc4c(N5CC6CCC(C5)N6)nc(OCC56CCCN5CC(F)C6)nc4c3F)c12 (stereo not given) + COC1C(OC(N)=O)C(O)C(Oc2ccc3c(O)c(NC(=O)c4ccc(O)c(CC=C(C)C)c4)c(=O)oc3c2C)OC1(C)C
Second compound 0.0316 µM
  IC50: > 10 µM
Second compound 0.1 µM
  IC50: > 10 µM
Second compound 0.316 µM
  IC50: > 10 µM
Second compound 1 µM
  IC50: > 10 µM
Second compound 3.16 µM
  IC50: > 10 µM
Second compound 10 µM
  IC50: > 10 µM
[1]
  viability, T/C: 101%
[2]
  viability, T/C: 116%
[3]
  viability, T/C: 76.9%
[4]
  viability, T/C: 95.8%
[5]
  viability, T/C: 82.4%
[6]
  viability, T/C: 76%
[7]
  viability, T/C: 82%
[8]
  viability, T/C: 106%
[9]
  viability, T/C: 86.2%
[10]
  viability, T/C: 81.4%
[11]
  viability, T/C: 91.7%
[12]
  viability, T/C: 85.4%
[13]
  viability, T/C: 79.3%
[14]
  viability, T/C: 96.5%
[15]
  viability, T/C: 73.9%
[16]
  viability, T/C: 107%
[17]
  viability, T/C: 109%
[18]
  viability, T/C: 74.2%
[19]
  viability, T/C: 87.9%
[20]
  viability, T/C: 98.7%
[21]
  viability, T/C: 89.3%
[22]
  viability, T/C: 111%
[23]
  viability, T/C: 98.1%
[24]
  viability, T/C: 91.3%
[25]
  viability, T/C: 83.7%
[26]
  viability, T/C: 105%
[27]
  viability, T/C: 91.4%
[28]
  viability, T/C: 107%
[29]
  viability, T/C: 86.6%
[30]
  viability, T/C: 84%
[31]
  viability, T/C: 88.2%
[32]
  viability, T/C: 84.8%
[33]
  viability, T/C: 98.5%
[34]
  viability, T/C: 100%
[35]
  viability, T/C: 93.2%
[36]
  viability, T/C: 71.1%

## C=CC(=O)N1CCN(c2nc(=O)n(-c3c(C)ccnc3C(C)C)c3nc(-c4c(O)cccc4F)c(F)cc23)C(C)C1 (stereo not given) + COC1C(OC(N)=O)C(O)C(Oc2ccc3c(O)c(NC(=O)c4ccc(O)c(CC=C(C)C)c4)c(=O)oc3c2C)OC1(C)C
Second compound 0.0316 µM
  IC50: > 10 µM
Second compound 0.1 µM
  IC50: > 10 µM
Second compound 0.316 µM
  IC50: > 10 µM
Second compound 1 µM
  IC50: > 10 µM
Second compound 3.16 µM
  IC50: > 10 µM
Second compound 10 µM
  IC50: > 10 µM
[1]
  viability, T/C: 98.3%
[2]
  viability, T/C: 100%
[3]
  viability, T/C: 97.4%
[4]
  viability, T/C: 89%
[5]
  viability, T/C: 94.9%
[6]
  viability, T/C: 71.4%
[7]
  viability, T/C: 110%
[8]
  viability, T/C: 108%
[9]
  viability, T/C: 101%
[10]
  viability, T/C: 113%
[11]
  viability, T/C: 92.8%
[12]
  viability, T/C: 80.5%
[13]
  viability, T/C: 88.7%
[14]
  viability, T/C: 111%
[15]
  viability, T/C: 103%
[16]
  viability, T/C: 85%
[17]
  viability, T/C: 101%
[18]
  viability, T/C: 78.6%
[19]
  viability, T/C: 99.8%
[20]
  viability, T/C: 95%
[21]
  viability, T/C: 104%
[22]
  viability, T/C: 108%
[23]
  viability, T/C: 114%
[24]
  viability, T/C: 68%
[25]
  viability, T/C: 107%
[26]
  viability, T/C: 74.1%
[27]
  viability, T/C: 105%
[28]
  viability, T/C: 113%
[29]
  viability, T/C: 97.7%
[30]
  viability, T/C: 77.7%
[31]
  viability, T/C: 82.7%
[32]
  viability, T/C: 107%
[33]
  viability, T/C: 92.9%
[34]
  viability, T/C: 98.3%
[35]
  viability, T/C: 104%
[36]
  viability, T/C: 83.5%

## CCc1cc2c(N3CCc4c(cc(Cn5ccnc5)cc4-c4cn(C)nc4C(F)(F)F)C3=O)cc(C)nc2c(OC)n1 + COC1C(OC(N)=O)C(O)C(Oc2ccc3c(O)c(NC(=O)c4ccc(O)c(CC=C(C)C)c4)c(=O)oc3c2C)OC1(C)C
Second compound 0.0316 µM
  IC50: > 10 µM
Second compound 0.1 µM
  IC50: 8.91 µM
Second compound 0.316 µM
  IC50: > 10 µM
Second compound 1 µM
  IC50: > 10 µM
Second compound 3.16 µM
  IC50: > 10 µM
Second compound 10 µM
  IC50: > 10 µM
[1]
  viability, T/C: 103%
[2]
  viability, T/C: 78%
[3]
  viability, T/C: 89.6%
[4]
  viability, T/C: 74.5%
[5]
  viability, T/C: 74.3%
[6]
  viability, T/C: 59.8%
[7]
  viability, T/C: 90.6%
[8]
  viability, T/C: 87.1%
[9]
  viability, T/C: 89%
[10]
  viability, T/C: 81.1%
[11]
  viability, T/C: 64.6%
[12]
  viability, T/C: 48.4%
[13]
  viability, T/C: 96.2%
[14]
  viability, T/C: 80.6%
[15]
  viability, T/C: 72.4%
[16]
  viability, T/C: 68.2%
[17]
  viability, T/C: 74.2%
[18]
  viability, T/C: 56.4%
[19]
  viability, T/C: 76.9%
[20]
  viability, T/C: 67.4%
[21]
  viability, T/C: 69.4%
[22]
  viability, T/C: 68.5%
[23]
  viability, T/C: 72.4%
[24]
  viability, T/C: 71.3%
[25]
  viability, T/C: 91.1%
[26]
  viability, T/C: 77.4%
[27]
  viability, T/C: 76.9%
[28]
  viability, T/C: 62.5%
[29]
  viability, T/C: 72.7%
[30]
  viability, T/C: 61.8%
[31]
  viability, T/C: 82.1%
[32]
  viability, T/C: 96.1%
[33]
  viability, T/C: 84.2%
[34]
  viability, T/C: 66.2%
[35]
  viability, T/C: 58.5%
[36]
  viability, T/C: 62.6%

## CCc1cc2c(N3CCc4c(cc(Cn5ccnc5)cc4-c4cn(C)nc4C(F)(F)F)C3=O)ccnc2c(OC)n1 + COC1C(OC(N)=O)C(O)C(Oc2ccc3c(O)c(NC(=O)c4ccc(O)c(CC=C(C)C)c4)c(=O)oc3c2C)OC1(C)C
Second compound 0.0316 µM
  IC50: > 10 µM
Second compound 0.1 µM
  IC50: 8.32 µM
Second compound 0.316 µM
  IC50: > 10 µM
Second compound 1 µM
  IC50: > 10 µM
Second compound 3.16 µM
  IC50: > 10 µM
Second compound 10 µM
  IC50: > 10 µM
[1]
  viability, T/C: 94.1%
[2]
  viability, T/C: 88.3%
[3]
  viability, T/C: 87.3%
[4]
  viability, T/C: 78.4%
[5]
  viability, T/C: 62.2%
[6]
  viability, T/C: 60.8%
[7]
  viability, T/C: 82%
[8]
  viability, T/C: 99.8%
[9]
  viability, T/C: 92.2%
[10]
  viability, T/C: 70.4%
[11]
  viability, T/C: 63%
[12]
  viability, T/C: 46.5%
[13]
  viability, T/C: 99.5%
[14]
  viability, T/C: 78%
[15]
  viability, T/C: 78%
[16]
  viability, T/C: 73.1%
[17]
  viability, T/C: 76.6%
[18]
  viability, T/C: 62%
[19]
  viability, T/C: 84.5%
[20]
  viability, T/C: 93.8%
[21]
  viability, T/C: 78.2%
[22]
  viability, T/C: 80.6%
[23]
  viability, T/C: 65%
[24]
  viability, T/C: 57.2%
[25]
  viability, T/C: 78.4%
[26]
  viability, T/C: 99.7%
[27]
  viability, T/C: 87.2%
[28]
  viability, T/C: 72.6%
[29]
  viability, T/C: 67.6%
[30]
  viability, T/C: 61%
[31]
  viability, T/C: 80.8%
[32]
  viability, T/C: 79.7%
[33]
  viability, T/C: 79.5%
[34]
  viability, T/C: 78.5%
[35]
  viability, T/C: 61.7%
[36]
  viability, T/C: 66.1%

## COc1cc2cc(C(=O)CCC(=O)O)sc2cc1OC + COC1C(OC(N)=O)C(O)C(Oc2ccc3c(O)c(NC(=O)c4ccc(O)c(CC=C(C)C)c4)c(=O)oc3c2C)OC1(C)C
Second compound 0.0316 µM
  IC50: > 10 µM
Second compound 0.1 µM
  IC50: > 10 µM
Second compound 0.316 µM
  IC50: > 10 µM
Second compound 1 µM
  IC50: > 10 µM
Second compound 3.16 µM
  IC50: > 10 µM
Second compound 10 µM
  IC50: > 10 µM
[1]
  viability, T/C: 93.2%
[2]
  viability, T/C: 82.8%
[3]
  viability, T/C: 99.1%
[4]
  viability, T/C: 89.6%
[5]
  viability, T/C: 94.1%
[6]
  viability, T/C: 87.2%
[7]
  viability, T/C: 97.5%
[8]
  viability, T/C: 112%
[9]
  viability, T/C: 103%
[10]
  viability, T/C: 91%
[11]
  viability, T/C: 108%
[12]
  viability, T/C: 94.4%
[13]
  viability, T/C: 91.8%
[14]
  viability, T/C: 104%
[15]
  viability, T/C: 121%
[16]
  viability, T/C: 117%
[17]
  viability, T/C: 89%
[18]
  viability, T/C: 84.4%
[19]
  viability, T/C: 96.1%
[20]
  viability, T/C: 92.7%
[21]
  viability, T/C: 87.3%
[22]
  viability, T/C: 85.6%
[23]
  viability, T/C: 96%
[24]
  viability, T/C: 87.2%
[25]
  viability, T/C: 97.3%
[26]
  viability, T/C: 93.5%
[27]
  viability, T/C: 81.4%
[28]
  viability, T/C: 108%
[29]
  viability, T/C: 97.7%
[30]
  viability, T/C: 109%
[31]
  viability, T/C: 98.8%
[32]
  viability, T/C: 92.7%
[33]
  viability, T/C: 97.8%
[34]
  viability, T/C: 110%
[35]
  viability, T/C: 107%
[36]
  viability, T/C: 90.9%
